Source: ChEMBL document CHEMBL1137869 (Bioorg Med Chem Lett, 2004)

Tests used:
[1] = Maximum concentration was determined in dog by iv/po dose at 5 mg/kg; type: ADME, organism-based, Canis lupus familiaris; parameters: dose 5 mg/kg; conditions: in vivo
[2] = molecular target: T1, Platelet-derived growth factor receptor beta (Homo sapiens, UniProt P09619); assay: In vitro inhibition of Platelet derived growth factor receptor beta autophosphorylation in MG-63 cells with 45% human plasma; type: cell-based
[3] = molecular target: T1, Platelet-derived growth factor receptor beta; assay: In vitro inhibition of Platelet derived growth factor receptor beta autophosphorylation in MG-63 cells without plasma; type: cell-based
[4] = Inhibition of PDGFR-beta/Flt-3 chimeric receptor autophosphorylation in CHO cells; type: cell-based
[5] = Inhibition of PDGFR-beta/c-Kit chimeric receptor autophosphorylation in CHO cells; type: cell-based
[6] = Plasma half life was determined in monkey by iv/po dose at 10 mg/kg; type: ADME, organism-based; parameters: dose 10 mg/kg; conditions: cercopithecidae
[7] = Maximum concentration was determined in rat by iv/po dose at 10 mg/kg; type: ADME, organism-based; parameters: dose 10 mg/kg; conditions: in vivo
[8] = Maximum concentration was determined in monkey by iv/po dose at 10 mg/kg; type: ADME, organism-based; parameters: dose 10 mg/kg; conditions: cercopithecidae, in vivo
[9] = Area under curve was determined in dog by peroral dose at 5 mg/kg; type: ADME, organism-based, Canis lupus familiaris; parameters: dose 5 mg/kg, route oral; conditions: in vivo, po
[10] = Area under curve was determined in rat by peroral dose at 10 mg/kg; type: ADME, organism-based; parameters: dose 10 mg/kg, route oral; conditions: in vivo, po
[11] = Percent bioavailability was determined in dog by iv/po dose at 5 mg/kg; type: ADME, organism-based, Canis lupus familiaris; conditions: in vivo
[12] = Percent bioavailability was determined in rat by iv/po dose at 10 mg/kg; type: ADME, organism-based; conditions: in vivo
[13] = Percent bioavailability was determined in monkey by iv/po dose at 10 mg/kg; type: ADME, organism-based; conditions: cercopithecidae, in vivo
[14] = Plasma half life was determined in dog by iv/po dose at 5 mg/kg; type: ADME, organism-based, Canis lupus familiaris; parameters: dose 5 mg/kg
[15] = molecular target: T1, Platelet-derived growth factor receptor beta; assay: Inhibition of Platelet derived growth factor receptor beta autophosphorylation in CHO cells; type: cell-based
[16] = Plasma half life was determined in rat by iv/po dose at 10 mg/kg; type: ADME, organism-based; parameters: dose 10 mg/kg
[17] = Area under curve was determined in rat by peroral dose at 30 mg/kg; type: ADME, organism-based; parameters: dose 30 mg/kg, route oral; conditions: in vivo, po
[18] = Plasma half life was determined in dog by iv/po dose at 8.69 mg/kg; type: ADME, organism-based, Canis lupus familiaris; parameters: dose 8.69 mg/kg
[19] = Maximum concentration was determined in rat by iv/po dose at 30 mg/kg; type: ADME, organism-based; parameters: dose 30 mg/kg; conditions: in vivo
[20] = Maximum concentration was determined in dog by iv/po dose at 8.69 mg/kg; type: ADME, organism-based, Canis lupus familiaris; parameters: dose 8.69 mg/kg; conditions: in vivo
[21] = Bioavailability in rat (dose 30 mg/kg i.v./p.o.); type: ADME, organism-based; conditions: in vivo, po
[22] = Percent bioavailability was determined in dog by iv/po dose at 8.69 mg/kg; type: ADME, organism-based, Canis lupus familiaris; conditions: in vivo
[23] = Plasma half life was determined in rat by iv/po dose at 30 mg/kg; type: ADME, organism-based; parameters: dose 30 mg/kg

T1 sequence (P09619 whole entry): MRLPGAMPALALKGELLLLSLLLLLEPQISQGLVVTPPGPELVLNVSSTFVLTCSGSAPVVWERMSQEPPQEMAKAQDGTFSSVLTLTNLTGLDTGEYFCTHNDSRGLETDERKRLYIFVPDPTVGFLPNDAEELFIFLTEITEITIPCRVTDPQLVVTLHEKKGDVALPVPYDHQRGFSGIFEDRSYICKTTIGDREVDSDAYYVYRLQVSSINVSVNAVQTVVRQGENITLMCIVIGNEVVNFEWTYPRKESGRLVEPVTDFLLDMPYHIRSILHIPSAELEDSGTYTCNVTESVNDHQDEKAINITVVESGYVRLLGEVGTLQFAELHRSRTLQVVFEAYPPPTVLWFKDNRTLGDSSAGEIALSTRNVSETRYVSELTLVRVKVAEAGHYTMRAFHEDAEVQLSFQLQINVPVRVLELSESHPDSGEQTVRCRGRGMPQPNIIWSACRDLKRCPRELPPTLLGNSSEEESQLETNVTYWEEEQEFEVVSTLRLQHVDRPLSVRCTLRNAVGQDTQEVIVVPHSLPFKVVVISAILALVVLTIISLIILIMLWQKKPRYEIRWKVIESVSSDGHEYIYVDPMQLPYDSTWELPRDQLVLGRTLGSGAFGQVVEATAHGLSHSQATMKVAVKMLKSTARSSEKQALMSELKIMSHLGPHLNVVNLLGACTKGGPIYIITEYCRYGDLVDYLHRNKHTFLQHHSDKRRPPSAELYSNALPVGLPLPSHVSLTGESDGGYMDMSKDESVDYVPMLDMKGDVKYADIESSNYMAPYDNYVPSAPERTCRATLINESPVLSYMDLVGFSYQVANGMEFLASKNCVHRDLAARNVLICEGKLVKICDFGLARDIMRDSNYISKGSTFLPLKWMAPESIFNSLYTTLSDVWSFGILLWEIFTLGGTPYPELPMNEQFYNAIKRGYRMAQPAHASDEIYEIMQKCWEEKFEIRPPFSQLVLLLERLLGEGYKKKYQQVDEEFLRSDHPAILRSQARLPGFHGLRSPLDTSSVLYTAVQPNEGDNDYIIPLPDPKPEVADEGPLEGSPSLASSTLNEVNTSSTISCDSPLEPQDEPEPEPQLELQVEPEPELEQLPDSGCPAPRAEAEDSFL

COc1cc2c(N3CCN(/C(S)=N\c4ccc(-c5ccccn5)cc4)CC3)ncnc2cc1OCCN1CCCCC1
Cmax [1]: 38.9 ng/mL
IC50 [2]: 150 nM
IC50 [3]: 180 nM
IC50 [4]: 3190 nM
IC50 [5]: 100 nM
half-life [6]: 8.46 h
Cmax [7]: 34.1 ng/mL
Cmax [8]: 143 ng/mL
AUC [9]: 333 ng·h/mL
AUC [10]: 26.9 µg/h/mL
bioavailability [11]: 30.2%
bioavailability [12]: 8.82%
bioavailability [13]: 68%
half-life [14]: 7.58 h
IC50 [15]: 70 nM
half-life [16]: 17.4 h

COc1cc2c(N3CCN(C(=S)NCc4cnc(C)cn4)CC3)ncnc2cc1OCCN1CCCCC1
AUC [17]: 32.2 µg/h/mL
IC50 [2]: 60 nM
IC50 [3]: 50 nM
IC50 [4]: > 30000 nM
IC50 [5]: 890 nM
half-life [18]: 10.8 h
half-life [6]: 20.9 h
Cmax [19]: 239 ng/mL
Cmax [20]: 297 ng/mL
Cmax [8]: 235 ng/mL
bioavailability [21]: 13.7%
bioavailability [22]: 38.8%
half-life [23]: 14.1 h
IC50 [15]: 250 nM
